{"source": "paper PMC7156458", "about": "“Synthetic biology based construction of biological activity-related library of fungal decalin-containing diterpenoid pyrones” (Nature Communications, 2020)", "experiment_in_all_cases": "cells", "parameters_in_all_cases": "species or system JFCR39 human cancer cell lines; JFCR39 panel growth inhibition, sulforhodamine B total protein after 48 h", "key": {"ACHN": {"test_system": "ACHN", "conditions": "48 h; inhibitor; Log GI50, 48 h", "how_it_was_run": "(§1)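 Cells are grown in kanamycin-supplemented RPMI-1640 with 5% FBS (37°C, humidified 5% CO2), then treated with compound for 48 hours. Antiproliferative effect is scored by sulforhodamine B protein staining and expressed as GI50, duplicate determinations.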"}, "BSY-1": {"test_system": "BSY-1", "conditions": "48 h; inhibitor; Log GI50, 48 h", "how_it_was_run": "as §1"}, "DMS114": {"test_system": "DMS114", "conditions": "48 h; inhibitor; Log GI50, 48 h", "how_it_was_run": "as §1"}, "DMS273": {"test_system": "DMS273", "conditions": "48 h; inhibitor; Log GI50, 48 h", "how_it_was_run": "as §1"}, "DU-145": {"test_system": "DU-145", "conditions": "48 h; inhibitor; Log GI50, 48 h", "how_it_was_run": "as §1"}, "HCC2998": {"test_system": "HCC2998", "conditions": "48 h; inhibitor; Log GI50, 48 h", "how_it_was_run": "as §1"}, "HCT-15": {"test_system": "HCT-15", "conditions": "48 h; inhibitor; Log GI50, 48 h", "how_it_was_run": "as §1"}, "HT-29": {"test_system": "HT-29", "conditions": "48 h; inhibitor; Log GI50, 48 h", "how_it_was_run": "as §1"}, "MCF-7": {"test_system": "MCF-7", "conditions": "Homo sapiens, MCF7, 48 h", "how_it_was_run": "as §1"}, "NCI-H23": {"test_system": "NCI-H23", "conditions": "48 h; inhibitor; Log GI50, 48 h", "how_it_was_run": "as §1"}, "NCI-H460": {"test_system": "NCI-H460", "conditions": "48 h; inhibitor; Log GI50, 48 h", "how_it_was_run": "as §1"}, "NCI-H522": {"test_system": "NCI-H522", "conditions": "48 h; inhibitor; Log GI50, 48 h", "how_it_was_run": "as §1"}, "OVCAR-4": {"test_system": "OVCAR-4", "conditions": "48 h; inhibitor; Log GI50, 48 h", "how_it_was_run": "as §1"}, "OVCAR-5": {"test_system": "OVCAR-5", "conditions": "48 h; inhibitor; Log GI50, 48 h", "how_it_was_run": "as §1"}, "SF-268": {"test_system": "SF-268", "conditions": "48 h; inhibitor; Log GI50, 48 h", "how_it_was_run": "as §1"}, "SF-539": {"test_system": "SF-539", "conditions": "48 h; inhibitor; Log GI50, 48 h", "how_it_was_run": "as §1"}, "SK-OV-3": {"test_system": "SK-OV-3", "conditions": "48 h; inhibitor; Log GI50, 48 h", "how_it_was_run": "as §1"}, "SNB-75": {"test_system": "SNB-75", "conditions": "48 h; inhibitor; Log GI50, 48 h", "how_it_was_run": "as §1"}, "SNB-78": {"test_system": "SNB-78", "conditions": "48 h; inhibitor; Log GI50, 48 h", "how_it_was_run": "as §1"}, "St-4": {"test_system": "St-4", "conditions": "48 h; inhibitor; Log GI50, 48 h", "how_it_was_run": "as §1"}, "U251": {"test_system": "U251", "conditions": "48 h; inhibitor; Log GI50, 48 h", "how_it_was_run": "as §1"}}, "data": [{"smiles": "C=C1CCC2C(C)(CCC=C(C)C)C(O)CCC2(C)C1Cc1c(OC)oc(CO)c(C)c1=O", "note": "(stereo not drawn) [Compound 16]", "values": [{"measurement": "Log GI50", "setting": "ACHN", "result": -5.541, "unit": "M"}, {"measurement": "Log GI50", "setting": "BSY-1", "result": -4.961, "unit": "M"}, {"measurement": "Log GI50", "setting": "DMS114", "result": -6.139, "unit": "M"}, {"measurement": "Log GI50", "setting": "DMS273", "result": -5.822, "unit": "M"}, {"measurement": "Log GI50", "setting": "DU-145", "result": -4.962, "unit": "M"}, {"measurement": "Log GI50", "setting": "HCC2998", "result": -4.871, "unit": "M"}, {"measurement": "Log GI50", "setting": "HCT-15", "result": -5.220, "unit": "M"}, {"measurement": "Log GI50", "setting": "HT-29", "result": -4.904, "unit": "M"}, {"measurement": "GI50", "setting": "MCF-7", "result": 4.46, "unit": "µM"}, {"measurement": "Log GI50", "setting": "NCI-H23", "result": -5.618, "unit": "M"}, {"measurement": "Log GI50", "setting": "NCI-H460", "result": -6.167, "unit": "M"}, {"measurement": "Log GI50", "setting": "NCI-H522", "result": -5.659, "unit": "M"}, {"measurement": "Log GI50", "setting": "OVCAR-4", "result": -4.966, "unit": "M"}, {"measurement": "Log GI50", "setting": "OVCAR-5", "result": -4.859, "unit": "M"}, {"measurement": "Log GI50", "setting": "SF-268", "result": -4.944, "unit": "M"}, {"measurement": "Log GI50", "setting": "SF-539", "result": -4.953, "unit": "M"}, {"measurement": "Log GI50", "setting": "SK-OV-3", "result": -4.993, "unit": "M"}, {"measurement": "Log GI50", "setting": "SNB-75", "result": -4.827, "unit": "M"}, {"measurement": "Log GI50", "setting": "SNB-78", "result": -4.939, "unit": "M"}, {"measurement": "Log GI50", "setting": "St-4", "result": -4.853, "unit": "M"}, {"measurement": "Log GI50", "setting": "U251", "result": -4.880, "unit": "M"}]}]}
